Experimental data published in patent US20250163016A1, “PYRIDINE DERIVATIVE, PREPARATION METHOD THEREFOR AND USE THEREOF” (CHENGDU EASTON BIOPHARMACEUTICALS CO., LTD., priority 2022, published 2025).

Target: T1, LSD1 (Homo sapiens, UniProt O60341)
T1 construct: purchased Active Motif 31432
Test: LSD1 activity test (HTRF)
Assay type: biochemical
Conditions: H3(1-21)K4 me1-biotin substrate, read-out: IC50, inhibitory activity on LSD1
Description: In this test, a homogeneous time resolved fluorescence (HTRF) technology was utilized, and the inhibitory activity of compounds on LSD1 was detected by adopting a two-step method. The first step was to incubate LSD1, compounds of different concentrations, and a biotin-labeled methylated polypeptide substrate (H3(1-21)K4 me1-biotin) at the room temperature for fixed time.
A corresponding solution with a 1000-fold final concentration was formed by dilution in a 384-well Source plate, and then Echo550 was used for transferring 10 nL to a 384-well reaction plate for being tested.
An inhibition percentage was calculated using a maximum value, a minimum value, and a signal value (maximum value: fluorescence intensity of 5 μL of 2× enzyme solution+5 μL of 2× substrate mixed solution+10 nL of 100% DMSO+10 μL of detection solution; minimum value: fluorescence intensity of 5 μL of 1× reaction solution+5 μL of 2× substrate mixed solution+10 nL of 100% DMSO+10 μL of detection solution; and signal value: fluorescence intensity of 5 μL of 2× enzyme solution+5 μL of 2× substrate mixed solution+10 nL of diluted compound to be tested+10 μL of detection solution), and a calculation formula was as follows: […]
Using a logarithm of the concentration as an X axis and the percentage inhibition rate as a Y axis, a dose-response curve was fitted using a formula log(inhibitor) vs. response-Variable slope (Four parameters) of analysis software Graphpad Prism 5 to obtain the IC50 value of each compound on the enzyme activity.

Compared with Cn1ncc2cc(-c3cc(C(N)=O)c(N4CCC(N)CC4)nc3-c3ccc(C#N)c(F)c3)ccc21 [Compound 11, 2-(4-aminopiperid-1-yl)-6-(4-cyano-3-fluorophenyl)-5-(1-methyl-1H-indazol-5-yl)nicotinamide], Cn1ncc2cc(-c3c(C(N)=O)cc(N4CCC(N)CC4)nc3-c3ccc(C#N)c(F)c3)ccc21 [Compound 10, 6-(4-aminopiperid-1-yl)-2-(4-cyano-3-fluorophenyl)-3-(1-methyl-1H-indazol-5-yl)isonicotinamide] is 1.9-fold lower in IC50: 1.5 nM for the first, 0.81 nM for the second. The second is the more potent here.

Cn1ncc2cc(-c3cc(C(N)=O)c(N4CCCNCC4)nc3-c3ccc(C#N)c(F)c3)ccc21 [Compound 26, 6-(4-cyano-3-fluorophenyl)-2-(1,4-diaza-1-yl)-5-(1-methyl-1H-indazol-5-yl)nicotinamide] and CN(C)C(=O)c1cc(-c2ccc3c(cnn3C)c2)c(-c2ccc(C#N)c(F)c2)nc1N1CCCNCC1 [Compound 27, 6-(4-cyano-3-fluorophenyl)-2-(1,4-diazaniline-1-yl)-N,N-dimethyl-5-(1-methyl-1H-indazol-5-yl)nicotinamide] are within 1.5-fold of each other in IC50: 2.9 nM for the first, 3.3 nM for the second.

First: COc1ccc(-c2c(C#N)cc(C3CCC(N)CC3)nc2-c2ccc(C#N)c(F)c2)cc1F (stereo not shown) [Compound 14, 6-(4-aminocyclohexyl)-2-(4-cyano-3-fluorophenyl)-3-(3-fluoro-4-methoxyphenyl)isonicotinonitrile]
Second: COc1ccc(-c2c(C#N)cc(N3CCC(N)CC3)nc2-c2ccc(C#N)c(F)c2)cc1F [Compound 1, 6-(4-aminopiperid-1-yl)-2-(4-cyano-3-fluorophenyl)-3-(3-fluoro-4-methoxyphenyl)isonicotinonitrile]
The IC50 of the first is 4.2-fold higher: 8.9 nM for the first, 2.1 nM for the second. The second is the more potent here.

CC(C)(O)C(F)(F)c1ccc(-c2c(C#N)cc(N3CCC(N)CC3)nc2-c2ccc(C#N)c(F)c2)c(F)c1 [Compound 35, 6-(4-aminopiperid-1-yl)-2-(4-cyano-3-fluorophenyl)-3-(4-(1,1-difluoro-2-hydroxyl-2-methylpropyl)-2-fluorophenyl)isonicotinonitrile] and CC(C)(O)Cc1ccc(-c2c(C#N)cc(N3CCC(N)CC3)nc2-c2ccc(C#N)c(F)c2)c(F)c1 [Compound 19, 6-(4-aminopiperid-1-yl)-2-(4-cyano-3-fluorophenyl)-3-(2-fluoro-4-(2-hydroxyl-2-methylpropyl)phenyl)isonicotinonitrile] are within 1.5-fold of each other in IC50: 2.2 nM for the first, 3.1 nM for the second.

Going from CC(C)(O)Cn1ncc2cc(-c3c(C(N)=O)cc(N4CCC(N)CC4)nc3-c3ccc(C#N)c(F)c3)c(F)cc21 [Compound 17, 6-(4-aminopiperid-1-yl)-2-(4-cyano-3-fluorophenyl)-3-(6-fluoro-1-(2-hydroxyl-2-methylpropyl)-1H-indazol-5-yl)isonicotinamide] to CC(C)(O)Cn1ncc2cc(-c3c(-c4ccc(C#N)c(F)c4)nc(N4CCC(N)CC4)c4c3CNC4=O)c(F)cc21 [Compound 9, 4-(4-(4-aminopiperid-1-yl)-7-(6-fluoro-1-(2-hydroxyl-2-methylpropyl)-1H-indazol-5-yl)-3-oxo-2,3-dihydro-1H-pyrrole[3,4-c]pyrid-6-yl)-2-fluorobenzonitrile], the IC50 falls from 1.2 nM to 0.72 nM (1.7-fold).

Cn1ncc2cc(-c3cc(C#N)c(N4CCC(N)CC4)nc3-c3ccc(C#N)c(F)c3)ccc21 [Compound 12, 2-(4-aminopiperid-1-yl)-6-(4-cyano-3-fluorophenyl)-5-(1-methyl-1H-indazol-5-yl)nicotinonitrile] and Cn1ncc2cc(-c3c(-c4ccc(C#N)c(F)c4)nc(N4CCC(N)CC4)c4c3CNC4=O)ccc21 [Compound 8, 4-(4-(4-aminopiperid-1-yl)-7-(1-methyl-1H-indazol-5-yl)-3-oxo-2,3-dihydro-1H-pyrrole[3,4-c]pyrid-6-yl)-2-fluorobenzonitrile] are within 1.5-fold of each other in IC50: 4.4 nM for the first, 6.5 nM for the second.

First: COc1ccc(-c2c(C#N)cc(N3CCCNCC3)nc2-c2ccc(C#N)c(F)c2)cc1F [Compound 15, 2-(4-cyano-3-fluorophenyl)-6-(1,4-diazacyclohepta-1-yl)-3-(3-fluoro-4-methoxyphenyl)isonicotinonitrile]
Second: COc1ccc(-c2c(C#N)cc(N3CCC4(CC3)CNC4)nc2-c2ccc(C#N)c(F)c2)cc1F [Compound 22, 2-(4-cyano-3-fluorophenyl)-3-(3-fluoro-4-methoxyphenyl)-6-(2,7-diazaspiro[3.5]non-7-yl)isonicotinonitrile]
The IC50 of the first is 3.1-fold lower: 2 nM for the first, 6.2 nM for the second. The first is the more potent here.

Compared with Cc1noc2cc(-c3c(C#N)cc(N4CCC(N)CC4)nc3-c3ccc(C#N)c(F)c3)c(F)cc12 [Compound 33, 6-(4-aminopiperid-1-yl)-2-(4-cyano-3-fluorophenyl)-3-(5-fluoro-3-tolueno[d]isoxazol-6-yl)isonicotinonitrile], CN1C(=O)C(F)(F)c2cc(-c3c(C#N)cc(N4CCC(N)CC4)nc3-c3ccc(C#N)c(F)c3)ccc21 [Compound 34, 6-(4-aminopiperid-1-yl)-2-(4-cyano-3-fluorophenyl)-3-(3,3-difluoro-1-methyl-2-oxoindol-5-yl)isonicotinonitrile] is 4.4-fold higher in IC50: 0.34 nM for the first, 1.5 nM for the second. The first is the more potent here.

COc1ccc(-c2c(C#N)cc(N3CCC4(CCNC4)CC3)nc2-c2ccc(C#N)c(F)c2)cc1F [Compound 29, 2-(4-cyano-3-fluorophenyl)-3-(3-fluoro-4-methoxyphenyl)-6-(2,8-diazaspiro[4.5]dec-8-yl)isonicotinonitrile] and COc1ccc(-c2c(C(N)=O)cc(N3CCC(N)CC3)nc2-c2ccc(C#N)c(F)c2)cc1F [Compound 2, 6-(4-aminopiperid-1-yl)-2-(4-cyano-3-fluorophenyl)-3-(3-fluoro-4-methoxyphenyl)isonicotinamide] are within 1.5-fold of each other in IC50: 3.4 nM for the first, 4.8 nM for the second.

First: COc1ccc(-c2c(-c3ccc(C#N)c(F)c3)nc(N3CCC(N)CC3)c3c2CNC3=O)cc1F [Compound 3, 4-(4-(4-aminopiperid-1-yl)-7-(3-fluoro-4-methoxyphenyl)-3-oxo-2,3-dihydro-1H-pyrrole[3,4-c]pyrid-6-yl)-2-fluorobenzonitrile]
Second: Cn1ncc2cc(-c3cc(C(=O)NC4CC4)c(N4CCCNCC4)nc3-c3ccc(C#N)c(F)c3)ccc21 [Compound 28]
The IC50 of the first is 2.5-fold higher: 5.8 nM for the first, 2.3 nM for the second.

Cn1ncc2cc(-c3c(C#N)cc(N4CCCNCC4)nc3-c3ccc(C#N)c(F)c3)ccc21 [Compound 20, 2-(4-cyano-3-fluorophenyl)-6-(1,4-diazaniline-1-yl)-3-(1-methyl-1H-indazol-5-yl)isonicotinonitrile] showed an IC50 of 1.4 nM.

Tested on: not listed separately
Test: Pharmacokinetics of oral administration of rats
Assay type: in vivo
Conditions: male, rat, SD rats, p.o. 5.0 mg/kg, plasma
Description: With SD rats as tested animals, blood drug concentrations in plasma at different moments after oral administration of the compounds of the present application by the rats in a clarification kit mode were determined using an LC-MS/MS method. Pharmacokinetic parameters of the compounds of the present application in the rats were obtained, and pharmacokinetic characteristics of the compounds were studied.
• SD rats, male, weight 180-220 g, 3 rats per group. The animals were fed in an animal house after being purchased, an adaptation period was at least 3 days, and they were used for tests after passing quarantine.
According to Table 4, each group of rats was given the corresponding tested drugs or positive drugs by gavage, before administration, and 15 min, 30 min, 1 h, 2 h, 4 h, 6 h, 8 h, and 24 h after administration, a fixed volume of blood was collected through eye sockets and placed in an EDTA-K2 anticoagulant tube, centrifuging was carried out at 8000 rpm for 1 min to separate plasma into a centrifuge tube, and the plasma was frozen in a −20° C. refrigerator.
The plasma at each time point stored at −20° C. was taken out, then acetonitrile was added, after whirling at 1500 revolutions for 2 min, centrifuging was carried out for 15 min (3500 r/min), and a fixed volume of solution supernatant was taken for LC-MS/MS analysis.
Non-compartment model fitting was carried out on pharmacokinetic behaviors of the tested compounds, and DAS3.31 software was adopted to calculate main pharmacokinetic parameters (T1/2, Tmax, Cmax, AUClast, etc.).

COc1ccc(-c2c(C#N)cc(C3CCC(N)CC3)nc2-c2ccc(C#N)c(F)c2)cc1F (stereo not shown) [Compound 14, 6-(4-aminocyclohexyl)-2-(4-cyano-3-fluorophenyl)-3-(3-fluoro-4-methoxyphenyl)isonicotinonitrile] and COc1ccc(-c2c(C#N)cc(N3CCC(N)CC3)nc2-c2ccc(C#N)c(F)c2)cc1F [Compound 1, 6-(4-aminopiperid-1-yl)-2-(4-cyano-3-fluorophenyl)-3-(3-fluoro-4-methoxyphenyl)isonicotinonitrile] are within error of each other in AUC(0-t): 1470 ± 44.6 ng·h/mL for the first, 1300 ± 411 ng·h/mL for the second.

COc1ccc(-c2c(C#N)cc(N3CCCNCC3)nc2-c2ccc(C#N)c(F)c2)cc1F [Compound 15, 2-(4-cyano-3-fluorophenyl)-6-(1,4-diazacyclohepta-1-yl)-3-(3-fluoro-4-methoxyphenyl)isonicotinonitrile] and Cn1ncc2cc(-c3c(C#N)cc(N4CCCNCC4)nc3-c3ccc(C#N)c(F)c3)ccc21 [Compound 20, 2-(4-cyano-3-fluorophenyl)-6-(1,4-diazaniline-1-yl)-3-(1-methyl-1H-indazol-5-yl)isonicotinonitrile] are within error of each other in AUC(0-t): 1550 ± 252 ng·h/mL for the first, 1410 ± 293 ng·h/mL for the second.

COc1ccc(-c2c(C#N)cc(C3CCC(N)CC3)nc2-c2ccc(C#N)c(F)c2)cc1F (stereo not shown) [Compound 14, 6-(4-aminocyclohexyl)-2-(4-cyano-3-fluorophenyl)-3-(3-fluoro-4-methoxyphenyl)isonicotinonitrile] and COc1ccc(-c2c(C#N)cc(N3CCC(N)CC3)nc2-c2ccc(C#N)c(F)c2)cc1F [Compound 1, 6-(4-aminopiperid-1-yl)-2-(4-cyano-3-fluorophenyl)-3-(3-fluoro-4-methoxyphenyl)isonicotinonitrile] are within 1.5-fold of each other in Cmax: 130 ± 7.9 ng/mL for the first, 93.9 ± 19.1 ng/mL for the second.

COc1ccc(-c2c(C#N)cc(N3CCCNCC3)nc2-c2ccc(C#N)c(F)c2)cc1F [Compound 15, 2-(4-cyano-3-fluorophenyl)-6-(1,4-diazacyclohepta-1-yl)-3-(3-fluoro-4-methoxyphenyl)isonicotinonitrile] and Cn1ncc2cc(-c3c(C#N)cc(N4CCCNCC4)nc3-c3ccc(C#N)c(F)c3)ccc21 [Compound 20, 2-(4-cyano-3-fluorophenyl)-6-(1,4-diazaniline-1-yl)-3-(1-methyl-1H-indazol-5-yl)isonicotinonitrile] are within error of each other in Cmax: 125 ± 25.8 ng/mL for the first, 126 ± 23.9 ng/mL for the second.

COc1ccc(-c2c(C#N)cc(C3CCC(N)CC3)nc2-c2ccc(C#N)c(F)c2)cc1F (stereo not shown) [Compound 14, 6-(4-aminocyclohexyl)-2-(4-cyano-3-fluorophenyl)-3-(3-fluoro-4-methoxyphenyl)isonicotinonitrile] and COc1ccc(-c2c(C#N)cc(N3CCC(N)CC3)nc2-c2ccc(C#N)c(F)c2)cc1F [Compound 1, 6-(4-aminopiperid-1-yl)-2-(4-cyano-3-fluorophenyl)-3-(3-fluoro-4-methoxyphenyl)isonicotinonitrile] are within error of each other in Tmax: 4.67 ± 2.31 h for the first, 6 h for the second.

COc1ccc(-c2c(C#N)cc(N3CCCNCC3)nc2-c2ccc(C#N)c(F)c2)cc1F [Compound 15, 2-(4-cyano-3-fluorophenyl)-6-(1,4-diazacyclohepta-1-yl)-3-(3-fluoro-4-methoxyphenyl)isonicotinonitrile] and Cn1ncc2cc(-c3c(C#N)cc(N4CCCNCC4)nc3-c3ccc(C#N)c(F)c3)ccc21 [Compound 20, 2-(4-cyano-3-fluorophenyl)-6-(1,4-diazaniline-1-yl)-3-(1-methyl-1H-indazol-5-yl)isonicotinonitrile] are within 1.5-fold of each other in Tmax: 6 h for the first, 4.67 ± 1.15 h for the second.

COc1ccc(-c2c(C#N)cc(C3CCC(N)CC3)nc2-c2ccc(C#N)c(F)c2)cc1F (stereo not shown) [Compound 14, 6-(4-aminocyclohexyl)-2-(4-cyano-3-fluorophenyl)-3-(3-fluoro-4-methoxyphenyl)isonicotinonitrile] and COc1ccc(-c2c(C#N)cc(N3CCC(N)CC3)nc2-c2ccc(C#N)c(F)c2)cc1F [Compound 1, 6-(4-aminopiperid-1-yl)-2-(4-cyano-3-fluorophenyl)-3-(3-fluoro-4-methoxyphenyl)isonicotinonitrile] are within error of each other in half-life: 5.97 ± 0.29 h for the first, 7.64 ± 2.46 h for the second.

COc1ccc(-c2c(C#N)cc(N3CCCNCC3)nc2-c2ccc(C#N)c(F)c2)cc1F [Compound 15, 2-(4-cyano-3-fluorophenyl)-6-(1,4-diazacyclohepta-1-yl)-3-(3-fluoro-4-methoxyphenyl)isonicotinonitrile] and Cn1ncc2cc(-c3c(C#N)cc(N4CCCNCC4)nc3-c3ccc(C#N)c(F)c3)ccc21 [Compound 20, 2-(4-cyano-3-fluorophenyl)-6-(1,4-diazaniline-1-yl)-3-(1-methyl-1H-indazol-5-yl)isonicotinonitrile] are within error of each other in half-life: 5.73 ± 0.8 h for the first, 4.66 ± 0.73 h for the second.
